Measured values reported in US6462055B2, “Alpha-methylbenzyl-containing thiourea inhibitors of herpes viruses containing a phenylenediamine group” (Wyeth, priority 1998, dated 2002).
In brackets after ≈: the same amount, converted by molar mass.

Key:
HSV-1 = assay: HSV Antiviral (ELISA) Assay in Vero cells; assay type: cell-based, herpes simplex virus type 1; settings: HSV-1, Vero cells; for IC50: Human alphaherpesvirus 1, read-out: IC50 (ug/ml) HSV
Summary of the method: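 Viral replication was quantified by cell-fixed ELISA for HSV glycoprotein D, using a β-galactosidase reporter and fluorogenic umbelliferyl substrate, about 24 h after HSV-1 infection (MOI 0.006) of Vero cells. Compounds, at several concentrations, were added 30 min pre-infection. IC50 was derived from fluorescence relative to the compound-free signal.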

[1] = tested on: HCMV recombinant mutant virus (RV145); assay: microbe, parasite or virus in culture; assay type: cell-based, human cytomegalovirus; settings: for IC50: Human betaherpesvirus 5, read-out: IC50 ug/ml HCMV, HCMV
Excerpt: Microtiter plate assay. Ninety-six well plate cultures of human foreskin fibroblasts are infected in the presence of inhibitor compound with a HCMV recombinant mutant virus whose genome contains the prokaryotic beta-glucuronidase gene (Jefferson, R. A., S. M. Burgess, and D. Hirsh. 1986. Beta-glucuronidase from Escherichia coli as a gene fusion marker. Proc. Natl. Acad. Sci. USA 83:8447-8451) whose expression is controlled by a viral promoter. An example of such a virus is RV145 (Jones, T. R., V. P. Muzithras, and Y. Gluzman. 1991. Replacement mutagenesis of the human cytomegalovirus genome: US10 and US11 gene products are nonessential. J. Virol. 65:5860-5872). Since it is under the control of a viral promoter, beta-glucuronidase expression is an indirect indicator of growth and replication of HCMV in this assay. At 96 hours post-infection, the infected cell lysates are prepared (using 50 mM sodium phosphate [pH7.0]containing 0.1% Triton X-100 and 0.1% sarkosyl) and assayed for beta-glucuronidase activity using a substrate for the enzyme which when cleaved yields either a product which can be measured […] in a spectrophotometer or fluorescently in a microfluorimeter. Examples of such substrates are p-nitrophenyl-beta-D-glucuronide and methylumbelliferylglucuronide, respectively. The presence of an antiviral compound is indicated by the reduced expression of the HCMV genome resident beta-glucuronidase gene, compared to the absence of inhibitor. […] Data from this assay generated using varying amounts of inhibitor compound is also used to estimate the IC50 of an inhibitor compound.

VZV strain Ellen = assay: VZV Antiviral (ELISA) Assay in human foreskin fibroblast cells; assay type: cell-based, varicella-zoster virus; settings: for IC50: Human alphaherpesvirus 3, Fibroblast, read-out: IC50 (ug/ml) VZV
Summary of the method: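 Cell-based ELISA: infected/uninfected HFF mix (VZV Ellen, MOI <0.1) exposed to compound in DMEM/2% FBS for 3 days at 37° C. Anti-gpII monoclonal plus β-galactosidase-linked secondary, detected as 4-methylumbelliferone fluorescence; IC50 derived by comparing fluorescence with versus without compound.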

| SMILES | IC50 (ug/ml) HSV (HSV-1) | IC50 ug/ml HCMV [1] | IC50 (ug/ml) VZV (VZV strain Ellen) | % inhibition 10 ug/ml VZV (VZV strain Ellen) | IC50 (HSV-1) | IC50 [1] | IC50 (VZV strain Ellen) |
| --- | --- | --- | --- | --- | --- | --- | --- |
| CS(=O)(=O)c1ccc(NC(=S)Nc2ccc(NC(=O)c3c(F)cccc3F)cc2)cc1Cl [Example 393] | >10 µg/mL | 0.5 µg/mL (≈ 1.01 µM) | >10 µg/mL | 62% | – | – | – |
| Nc1ccc(Cl)cc1NC(=S)Nc1ccc(NC(=O)c2ccccc2F)cc1 [Example 437] | 0.05 µg/mL (≈ 0.121 µM) | >10 µg/mL | 8 µg/mL (≈ 19.3 µM) | 0% | – | – | – |
| Cc1ccc(NC(=S)Nc2ccc(NC(=O)c3ccccc3C)cc2)cc1Cl [Example 234] | 0.2 µg/mL (≈ 0.488 µM) | 1 µg/mL (≈ 2.44 µM) | >10 µg/mL | 68% | – | – | – |
| CSc1ccc(NC(=S)Nc2ccc(NC(=O)c3ccccc3F)cc2Cl)cc1Cl [Example 460] | 0.09 µg/mL (≈ 0.187 µM) | 2 µg/mL (≈ 4.16 µM) | >10 µg/mL | 50% | – | – | – |
| O=C(Nc1ccc(NC(=S)Nc2ccc3[nH]nnc3c2)cc1)c1c(F)cccc1F [Example 527] | >10 µg/mL | >10 µg/mL | >10 µg/mL | 20% | – | – | – |
| O=C(Nc1ccc(NC(=S)NCc2ccc3c(c2)OCO3)cc1)c1ccccc1F [Example 540] | >10 µg/mL | >0.5 µg/mL | >10 µg/mL | – | – | – | – |
| Cc1ccc(NC(=S)Nc2ccc(NC(=O)c3ccccc3F)cc2Cl)cc1Cl [Example 459] | 0.12 µg/mL (≈ 0.268 µM) | >10 µg/mL | >10 µg/mL | 25% | – | – | – |
| COc1cc(OC)c(NC(=S)Nc2ccc(NC(=O)c3ccccc3SC)cc2)cc1Cl [Example 194] | 1.5 µg/mL (≈ 3.07 µM) | >10 µg/mL | >10 µg/mL | 45% | – | – | – |
| COc1cc(OC)c(NC(=S)Nc2ccc(NC(=O)c3c(F)cccc3F)cc2)cc1Cl [Example 140] | 0.15 µg/mL (≈ 0.314 µM) | 4 µg/mL (≈ 8.37 µM) | 10 µg/mL (≈ 20.9 µM) | 65% | – | – | – |
| CCOc1ccc(NC(=S)Nc2ccc(NC(=O)c3ccccc3F)cc2)cc1Cl [Example 806] | >10 µg/mL | >10 µg/mL | >7.5 µg/mL | – | – | – | – |
| O=C(Nc1ccc(NC(=S)NCc2ccc(Cl)c(Cl)c2)cc1)c1ccccc1F [Example 538] | >10 µg/mL | >10 µg/mL | 10 µg/mL (≈ 22.3 µM) | – | – | – | – |
| CC(NC(=S)Nc1ccc(NC(=O)c2ccc(F)cc2)cc1)c1ccc(F)cc1 (stereo not shown) [Example 801] | – | – | – | – | > 10 µg/mL | > 10 µg/mL | > 7.5 µg/mL |
| CC(C)COc1ccc(NC(=S)Nc2ccc(NC(=O)c3ccccc3F)cc2)cc1Cl [Example 994, N-{4-[3-(3-Chloro-4-isobutoxy-phenyl)-thioureido]-phenyl}-2-fluoro-benzamide] | – | – | – | – | > 10 µg/mL | > 10 µg/mL | > 10 µg/mL |
| O=C(Nc1ccc(NC(=S)Nc2cccc(C(F)(F)F)c2)cc1)c1ccccc1F [Example 433] | >10 µg/mL | >10 µg/mL | >10 µg/mL | 0% | – | – | – |
| COc1cc(OC)c(NC(=S)Nc2ccc(NC(=O)c3ccccc3C(F)(F)F)cc2)cc1Cl [Example 138] | 1 µg/mL (≈ 1.96 µM) | 8 µg/mL (≈ 15.7 µM) | >10 µg/mL | 57% | – | – | – |
